Measurements: article PMC11997307, “Rat Sarcoma (RAS)-Protein-Targeting Synthetic Cell-Penetrating Peptide as an Anticancer Biomaterial” (Biomaterials Research, 2025)

How the values were obtained:
Assay type in all cases: cell-based, human
[1] = tested on: phospho-c-RAF and phospho-ERK1/2 in MDA-MB-231 cells; assay: Western blot of RAS-MAPK pathway, MDA-MB-231; settings: MDA-MB-231, 10-250 μM RBP 6 h then 50 ng/ml EGF 10 min
Protocol: (§1) Protein expression was confirmed via Western blot analysis. Briefly, 9 × 10^5 cells were cultured in 100-mm-diameter dishes. When they reached 90% confluence, the cells were starved for 18 h in serum-free medium. […] At the end of the culture period, the cells were lysed for 20 min in cold lysis buffer on ice. Protein concentration was measured using bicinchoninic acid protein assays (Thermo Fisher Scientific, MA, USA). Equal aliquots of protein (40 μg) were boiled for 7 min in 5× sample buffer and separated by 10% SDS–PAGE. Proteins were transferred onto nitrocellulose membranes, followed by washing with Tris-buffered saline (TBS) containing 0.1% Tween 20 (TBST). The membranes were then blocked for 60 min at room temperature with 5% skim milk in TBST. Following the washing procedure, the membranes were incubated with primary antibodies (RAS, phospho-ERK1/2, ERK1/2, phospho-RAF proto-oncogene serine/threonine-protein kinase [phospho-c-RAF; S338], c-RAF [Cell Signaling Technology, Beverly, MA, USA], and GAPDH [Santa Cruz Biotechnology, Inc., Santa Cruz, CA, USA]) diluted in TBST containing 5% skim milk at 4 °C for 18 h. […] The membranes were subsequently washed 3 more times, and protein bands were detected using chemiluminescence reagents (West Pico PLUS, Thermo Fisher Scientific, USA).

[2] = tested on: MDA-MB-231 cells; assay: Sphere formation assay
Protocol: The sphere formation potential of the cells was evaluated under nonadherent culture conditions. The cells were cultured in ultralow-attachment 6-well plates (Corning Life Sciences, MA, USA) at a density of 2 × 10^3 cells per well, since the low overall viability of […] prevents the use of single-cell culture methods. The cells were grown in DMEM/F12 (Invitrogen, CA, USA) supplemented with B27 serum-free supplement (1:50; Invitrogen, CA, USA), human recombinant epidermal growth factor (EGF), and 50 ng/ml human recombinant basic fibroblast growth factor (PeproTech, NJ, USA) with 100 μM peptides at 37 °C with 5% CO2. Fresh medium was added every 3 to 4 d, and sphere formation was monitored. The experiment was terminated on day 10, and the number of spheres (>50 μm) was quantified.

[3] = tested on: HCT-116 cells; assay: Cell viability, CCK-8 assay, HCT-116; settings: HCT-116 (KRAS G13D), CCK-8, 0-1,000 μM RBP, 24, 48 or 72 h, triplicate
Protocol: (§2) The viability of the cells was determined via Cell Counting Kit-8 (CCK-8; Dojindo Laboratories, Kumamoto, Japan) assay. The cells were plated in 96-well culture plates at a density of 5 × 10^3 cells per well and incubated for 24 h at 37 °C in a humidified incubator with 5% CO2. […] After incubation, the medium was replaced with fresh medium containing 10% (v/v) CCK-8 reagent, and the cells were incubated for 2 h. Absorbance was measured at 450 nm using a microplate reader. All experiments were performed in triplicate.

[4] = tested on: HT-29 cells; assay: Cell viability, CCK-8 assay, HT-29; settings: HT-29 (KRAS wild-type), CCK-8, 0-1,000 μM RBP, 24, 48 or 72 h, triplicate
Protocol: as §2

[5] = tested on: phospho-c-RAF and phospho-ERK1/2 in MCF-7 cells; assay: Western blot of RAS-MAPK pathway, MCF-7; settings: MCF-7, 10-250 μM RBP 6 h then 50 ng/ml EGF 10 min
Protocol: as §1

## C[C@@H](O)[C@H](NC(=O)[C@H](CO)NC(=O)[C@H](CS)NC(=O)[C@H](CCCCN)NC(=O)CN)C(=O)N[C@@H](CCCNC(=N)N)C(=O)NCC(=O)N[C@@H](CCCNC(=N)N)C(=O)N[C@@H](CCCCN)C(=O)N[C@@H](CS)C(=O)N[C@@H](CS)C(=O)N[C@@H](CCCNC(=N)N)C(=O)N[C@@H](CCCNC(=N)N)C(=O)N[C@@H](CCCCN)C(=O)N[C@@H](CCCCN)C(N)=O [RBP]
[1]
  activation of RAF (phospho-c-RAF): effectively inhibited
[1]; p-ERK/ERK, n = 3
  phosphorylation of ERK1/2: effectively inhibited
[2]; MDA-MB-231, serum-free medium with growth factors, nonadherent conditions, after 3 d (Fig. 2C legend)
  spherical colonies observed in RBP-treated groups: no colonies >30 μm in diameter were observed
[2]; MDA-MB-231, ultralow-attachment plates, 100 μM peptide added on the first day, 10 d
  sphere proliferation vs control: significantly suppressed
[3]
  percentage of viable cells: reduced the percentage of viable KRAS G13D mutant cells in a dose-dependent manner
[4]
  decrease in the percentage of viable cells: not significant
[5]
  RAF activation: did not inhibit
[5]; n = 3
  ERK1/2 phosphorylation: did not inhibit
